Reference: the supplement of paper PMC10307832

Legend:
Assay in all cases: relative viability (nuclei count vs DMSO), 5 days (fraction); higher = more cells survive
[1] = compound: C[C@]1(O)C[C@@H](c2nc(-c3ccc4ccc(-c5ccccc5)nc4c3)c3c(N)nccn32)C1 [Linsitinib] + CC(C)C[C@H](NC(=O)[C@H](Cc1ccccc1)NC(=O)c1cnccn1)B(O)O [Bortezomib] (partner 0.002 µM)
Outline: (§1)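 Relative viability divides the nuclei count in treated wells by that in vehicle wells. Lung cancer cell lines were seeded in 1536-well plates, dosed by pin tool the next day, and fixed and stained after 5 days in one step with final 0.05% Triton X-100, 1% formaldehyde and 1 ug/ml Hoechst. Dosing was a single drug or a fixed anchor-drug dose plus five library-drug doses (not always all listed) in √10 steps, and values are medians of duplicate plates imaged at 4×.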

[2] = compound: Cc1ccc(C(=O)N(CCCN)[C@@H](c2nc3cc(Cl)ccc3c(=O)n2Cc2ccccc2)C(C)C)cc1 [Ispinesib] + CS(=O)(=O)N1CCN(Cc2cc3nc(-c4cccc5[nH]ncc45)nc(N4CCOCC4)c3s2)CC1 [Pictilisib] (partner 1 µM)
Outline: as §1

[3] = compound: C[C@]1(O)C[C@@H](c2nc(-c3ccc4ccc(-c5ccccc5)nc4c3)c3c(N)nccn32)C1 [Linsitinib] + Cc1cc(Nc2cc(N3CCN(C)CC3)nc(Sc3ccc(NC(=O)C4CC4)cc3)n2)n[nH]1 [Tozasertib] (partner 0.1 µM)
Outline: as §1

[4] = compound: Cc1ccc(C(=O)N(CCCN)[C@@H](c2nc3cc(Cl)ccc3c(=O)n2Cc2ccccc2)C(C)C)cc1 [Ispinesib] + C[C@]1(O)C[C@@H](c2nc(-c3ccc4ccc(-c5ccccc5)nc4c3)c3c(N)nccn32)C1 [Linsitinib] (partner 1 µM)
Outline: as §1

## UMC-11
[1]; first compound 0.01 µM
  relative viability: 0.693
[1]; first compound 0.03162 µM
  relative viability: 0.621
[1]; first compound 0.1 µM
  relative viability: 0.829
[1]; first compound 1 µM
  relative viability: 0.752
[2]; first compound 0.001 µM
  relative viability: 0.653
[2]; first compound 0.003162 µM
  relative viability: 0.94
[2]; first compound 0.01 µM
  relative viability: 0.701
[2]; first compound 0.03162 µM
  relative viability: 0.2
[2]; first compound 0.1 µM
  relative viability: 0.263
[3]; first compound 0.01 µM
  relative viability: 0.204
[3]; first compound 0.1 µM
  relative viability: 0.196
[3]; first compound 1 µM
  relative viability: 0.19
[4]; first compound 0.001 µM
  relative viability: 1.06
[4]; first compound 0.003162 µM
  relative viability: 1.05
[4]; first compound 0.01 µM
  relative viability: 1.05
[4]; first compound 0.03162 µM
  relative viability: 0.449
[4]; first compound 0.1 µM
  relative viability: 0.244
